# Legend:
# [1] = biological target: T1, fatty acid amide hydrolase (FAAH) (Rattus norvegicus, UniProt P97612); type: biochemical
# T1 sequence (P97612 1-579): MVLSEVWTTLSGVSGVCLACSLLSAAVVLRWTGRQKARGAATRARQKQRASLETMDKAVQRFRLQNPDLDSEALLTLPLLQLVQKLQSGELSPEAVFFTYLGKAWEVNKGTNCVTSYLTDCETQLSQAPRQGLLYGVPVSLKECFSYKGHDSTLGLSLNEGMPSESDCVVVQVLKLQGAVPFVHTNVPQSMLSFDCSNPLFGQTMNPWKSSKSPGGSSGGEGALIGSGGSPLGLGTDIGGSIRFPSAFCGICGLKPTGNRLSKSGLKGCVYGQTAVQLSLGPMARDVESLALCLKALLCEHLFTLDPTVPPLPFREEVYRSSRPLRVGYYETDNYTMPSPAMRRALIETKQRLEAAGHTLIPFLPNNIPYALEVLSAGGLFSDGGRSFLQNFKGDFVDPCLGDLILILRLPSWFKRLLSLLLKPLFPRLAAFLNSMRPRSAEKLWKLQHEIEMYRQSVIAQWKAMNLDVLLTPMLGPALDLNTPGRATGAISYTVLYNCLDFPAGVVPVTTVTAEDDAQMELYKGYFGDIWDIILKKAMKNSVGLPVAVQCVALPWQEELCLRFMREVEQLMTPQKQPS
# [2] = biological target: T2, monoacylglycerol lipase (MAGL) (Homo sapiens, UniProt Q99685); type: biochemical
# T2 sequence (Q99685 1-303): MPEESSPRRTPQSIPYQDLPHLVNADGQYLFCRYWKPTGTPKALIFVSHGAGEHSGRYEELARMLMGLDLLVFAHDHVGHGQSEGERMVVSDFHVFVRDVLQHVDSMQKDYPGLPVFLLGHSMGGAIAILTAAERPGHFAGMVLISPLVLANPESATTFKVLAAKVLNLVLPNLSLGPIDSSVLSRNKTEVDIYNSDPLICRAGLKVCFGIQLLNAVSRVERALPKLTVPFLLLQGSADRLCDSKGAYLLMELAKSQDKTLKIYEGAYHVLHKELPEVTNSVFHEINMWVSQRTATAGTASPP
substance,measurement,setting,value
AM5206,IC50,[1],42 ± 6 nM
same,IC50,[2],15.1 µM

# From paper PMC4124033 (Journal of molecular neuroscience : MN, 2010)
